{"source": "ChEMBL document CHEMBL1926541", "about": "“Molecular docking of γ-sitosterol with some targets related to diabetes” (2012)", "assay_type_in_all_cases": "functional", "key": {"Rattus norvegicus [1]": {"test_system": "Rattus norvegicus", "experiment": "Antidiabetic activity in STZ-induced diabetic rat model assessed as increase in plasma insulin level at 20 mg/kg, po qd for 21 days"}, "Rattus norvegicus [2]": {"test_system": "Rattus norvegicus", "experiment": "Antidiabetic activity in STZ-induced diabetic rat model assessed as increase in glucose 6 phosphate dehydrogenase at 20 mg/kg, po qd for 21 days"}, "Rattus norvegicus [3]": {"test_system": "Rattus norvegicus", "experiment": "Antidiabetic activity in STZ-induced diabetic rat model assessed as increase in liver glycogen at 20 mg/kg, po qd for 21 days"}, "Rattus norvegicus [4]": {"test_system": "Rattus norvegicus", "experiment": "Antidiabetic activity in STZ-induced diabetic rat model assessed as increase in muscle glycogen at 20 mg/kg, po qd for 21 days"}, "Rattus norvegicus [5]": {"test_system": "Rattus norvegicus", "experiment": "Antidiabetic activity in STZ-induced diabetic rat model assessed as reduction in glucose-6-phosphatase at 20 mg/kg, po qd for 21 days", "set-up": "scale not given: the % may be the effect or the level left"}, "Rattus norvegicus [6]": {"test_system": "Rattus norvegicus", "experiment": "Antidiabetic activity in STZ-induced diabetic rat model assessed as reduction in glycosylated haemoglobin at 20 mg/kg, po qd for 21 days", "set-up": "scale not given: the % may be the effect or the level left"}}}
{"smiles": "CC[C@H](CC[C@@H](C)[C@H]1CC[C@H]2[C@@H]3CC=C4C[C@@H](O)CC[C@]4(C)[C@H]3CC[C@]12C)C(C)C", "note": "[BETA-SITOSTEROL]", "values": [{"measurement": "Activity", "setting": "Rattus norvegicus [1]", "result": 69.05, "unit": "%"}, {"measurement": "Activity", "setting": "Rattus norvegicus [2]", "result": 38.52, "unit": "%"}, {"measurement": "Activity", "setting": "Rattus norvegicus [3]", "result": 77.15, "unit": "%"}, {"measurement": "Activity", "setting": "Rattus norvegicus [4]", "result": 76.86, "unit": "%"}, {"measurement": "Activity", "setting": "Rattus norvegicus [5]", "result": 40.07, "unit": "%"}, {"measurement": "Activity", "setting": "Rattus norvegicus [6]", "result": 66.96, "unit": "%"}]}
